Measurements as given in patent US8906829B2, “Synergistic algicidal compositions including hydrazone derivatives and copper” (Dow AgroSciences LLC, priority 2010, dated 2014).

How the values were obtained:
[1] = test system: Synechocystis sp. strain 6803; assay: Growth inhibition of Synechocystis by hydrazones and isolated metal-hydrazone complexes, BG-11 Cu minus medium (Example 12); assay type: cell-based; conditions: Synechocystis, Test Concn. 0.05 μg/ml, read-out: Hydrazone % Inhn.
Protocol: In vitro toxicity assays against the cyanobacterium (blue-green alga) Synechocystis sp. strain 6803 were conducted using BG-11 medium except that copper micronutrient, normally included as CuSO4.5H2O, was omitted. The medium, termed BG-11 Cu minus, was prepared by dissolving 1.5 g NaNO3, 40 mg K2HPO4, 6 mg citric acid, 1 mg Na2EDTA and 20 mg Na2CO3 in 1 liter of milli Q water and treating the solution with 0.5 g Chelex 100 resin (Bio-Rad Analytical grade, 50-100 mesh, sodium form, cat#142-2822) by stifling at room temperature for 1 h. 900 mL were decanted and 67.5 mg MgSO4.7H2O, 32.4 mg […], 5.4 mg ferric ammonium citrate and 0.9 mL trace metal mix A5 without copper (2.86 g H3BO3, 1.81 g MnCl2.4H2O, 222 mg ZnSO4.7H2O, 390 mg Na2MoO4.2H2O and Co(NO3)2.6H2O in 1 L Milli Q water) was added. The pH was adjusted to 7.1 and the medium was filter-sterilized. Medium containing copper (BG-11 Cu plus) was prepared by adding CuCl2.2H2O to the BG-11 Cu minus medium at 0.2 μM. Test compounds were dissolved in dimethylsulfoxide (DMSO) at 2 mg/mL then appropriate dilutions in BG-11 Cu minus and BG-11 Cu plus media were prepared in sterilized microcentrifuge tubes. 100 μL aliquots were dispensed into flat-bottomed 96-well microtiter plates. Synechocystis was maintained under 24 h of light on BG-11 agar plates at 27° C. A loopful of cells was added to 50 mL of BG-11 Cu minus growth medium and the culture was incubated with shaking at 200 rpm at 27° C. for 24 h. The culture (10 to 20 mL aliquot) was centrifuged in a bench centrifuge at 2400 rpm for 2 min. The resulting cell pellet was resuspended in 5 mL sterile milli Q water (which had been treated with Chelex 100 resin using 0.5 g resin per liter of water by stirring at room temperature for 1 h), and recentrifuged. The cells were resuspended in BG-11 Cu minus medium, and the suspension adjusted to 4×10^5 spores per mL. Microtiter plates containing compounds as described above were inoculated with 100 μL of this cell suspension and the plates incubated at 27° C. for 72 h before assessing algal growth by measuring light scattering in a NepheloStar plate reader. Growth inhibition was determined by comparing growth in the presence of test compound with growth in control wells lacking test compound. Hydrazones and their isolated metal complexes were compared with respect to their in vitro activity toward C. reinhardtii and the cyanobacterium (blue-green alga) Synechocystis sp. strain 6803. Metal complexes of hydrazones were prepared by precipitation from ethanol with various metal salts at 1:1, 2:1 or 3:1 molar ratios, as described in general by Ainscough, Brodie, Dobbs, Ranford, and Waters (Inorganica Chimica Acta 1998, 267, 27-38, which is expressly incorporated by reference herein). In vitro assays against Synechocystis were conducted as described in Example 11 using BG-11 Cu minus medium. Growth inhibition was determined by comparing growth in the presence of test compound with growth in control wells lacking test compound.

melting point: 214 to 217 °C
Structure (SMILES): O=C(N/N=C/c1cc(C(F)(F)F)ccc1O)c1ccccc1 [Compound 68]
inhibition of growth at 0.05 µg/mL [1]: 16%
